# Marks after values point to notes of the source that are not given here.
# Tests used:
# Assay type in all cases: physicochemical
# [1] = Approximate solubility by manual dilution; conditions: r.t.
# Method: The approximate solubility of the PP415-P1 starting material was measured in twelve solvents and four solvent mixtures at r.t. by manual dilution combined with visual observation (Table 10). Due to the experimental error inherent in this method, the solubility values are intended to be regarded as rough estimates and are to be used solely for the design of crystallization experiments. All solvent mixtures are listed as ratios by volume (v/v).
# Approximate Solubility Determination: Approximate solubilities were determined by a stepwise dilution of a suspension of about 10 mg of substance in 0.05 mL of solvent. […] Due to the experimental error inherent in this method, the solubility values are intended to be regarded as rough estimates and are to be used solely for the design of crystallization experiments.
# [2] = Chemical stability in solvents and aqueous surfactant media (HPLC); conditions: diluent 0.1% formic acid in MeCN, within ~24 hours; start 99.9%
# Method: The chemical stability of the amorphous form was investigated in different solvents over the course of seven days.
# Solutions/suspensions with a concentration of 1 mg/mL were prepared in four organic solvents (acetone, MeOH, MeCN, EtOAc) and three aqueous surfactant media (1% aq. SDS, 1% aq. Tween 80, 1% aq. CTAB).
# Four separate solutions/suspensions were prepared for each solvent, equilibrated for 6 h, 24 h, 2 d, and 7 d and subsequently analyzed by HPLC.
# Due to this effect, the samples measured towards the end of the sequence (set up in the following order: 7 d, 2 d, 24 h, 6 h), might be affected and the obtained area-% might be underestimated.
# Four samples of 1.0 mg of the PP415-P1 material in 1.0 mL of the respective solvent were prepared. The resulting suspensions/solutions were equilibrated in a temperature-controlled Eppendorf Thermomixer Comfort shaker for 7 d, 2 d, 24 h, and 6 h at 25° C. at a shaking rate of 500 rpm. If necessary, the solid phase was separated by filter centrifugation (0.5-μm PVDF membrane). The filtrates were diluted in the diluent (0.1% formic acid in MeCN) to concentrations≦0.2 mg/mL (unknown and likely lower for suspensions) and examined using the HPLC method given in Table 29. As reference, the PP415-P1 material was diluted in the diluent to a concentration of 0.25 mg/mL and added to the beginning and end of the HPLC sequence.
# [3] = Storage stability of the amorphous form (PXRD)
# Method: To learn more about its fundamental properties and physical stability, the amorphous form of 63415 was stressed by storage at elevated temperatures and relative humidities.
# Samples of the amorphous form (the PP415-P1 starting material) were stored open at 25° C./˜62% r.h. (over saturated aqueous solution of NH4NO3) and 40° C./˜75% r.h. (over saturated aqueous solution of NaCl) and closed at 60° C. and 80° C. (Table 12). At time points 0 w, 1 w, 2 w, and 4 w the samples were examined by PXRD and compared to the starting material, PP415-P1.
# [4] = Dynamic vapor sorption (hygroscopicity)
# Method: Projekt Messtechnik Sorptions Prüfsystem SPS 11-100n or Surface Measurement Systems DVS-1. The sample was placed on an aluminum or platinum holder on top of a microbalance and allowed to equilibrate for 2 h at 50% r.h. before starting the pre-defined humidity program: • (1) 50→0% r.h. (5%/h); 5 h at 0% r.h. • (2) 0→95% r.h. (5%/h); 5 h at 95% r.h. • (3) 95→50% r.h. (5%/h); 2 h at 50% r.h.
# [5] = Polymorph screen: crystallization and drying experiments (FT-Raman, PXRD, TG-FTIR, DSC)
# Method: A preformulation and polymorphism study was performed for compound 63415. […] A total of 30 crystallization experiments, including phase equilibrations, drying experiments and other techniques, were carried out. All obtained solids were characterized by FT-Raman spectroscopy. All new forms were characterized by PXRD and TG-FTIR, and optionally by DSC and DVS.
# All obtained materials were characterized by FT-Raman spectroscopy; selected samples were also characterized by PXRD.
# Suspension equilibration experiments were carried out in one solvent and eleven solvent mixtures (Table 13). Suspensions of ˜100 mg of PP415-P1 in 0.2-2.0 mL of the selected solvents were prepared and shaken for 4-15 days at 22-24° C. The solids were recovered and characterized by FT-Raman spectroscopy; most were characterized also by PXRD.
# Hot solutions of PP415-P1 were prepared in one solvent and four solvent mixtures (Table 14). […] In two cases (-P22, -P23) no solid precipitated, even after storage at 4-5° C. for two days. Here, the solvent was evaporated under N2 flow at r.t. The solids were recovered and characterized by FT-Raman spectroscopy and for those with spectra different from the amorphous starting material, FT-Raman class 1, also by PXRD.
# Clear solutions of PP415-P1 were prepared in three solvent mixtures (Table 15). The solvents were then slowly evaporated at r.t. under ambient conditions. However, in two of the three experiments (-P15 and -P17) white solid precipitated before evaporation began. The obtained solids were examined by FT-Raman spectroscopy and PXRD.
# At least one sample of each class was dried under vacuum with the aim to desolvate the solvates and to obtain non-solvated crystalline forms of 63415 (Table 16). The dried materials were characterized further by FT-Raman, PXRD, and TG-FTIR.
# Bruker RFS100 with OPUS 6.5 software; Nd:YAG 1064-nm excitation, Ge detector, 3500-100 cm^−1 range; typical measurement conditions: 100-300 mW nominal laser power, 64-128 scans, 2 cm^−1 resolution.
# Stoe Stadi P; Mythen1K Detector; Cu—Kα radiation; standard measurement conditions: transmission; 40 kV and 40 mA tube power; curved Ge monochromator; 0.02°2θ step size, 12 s or 60 s step time, 1.5-50.5°2θ or 1.0-55°2θ scanning range; detector mode: step scan; 1°2θ or 6°2θ detector step; standard sample preparation: 10 to 20 mg sample was placed between two acetate foils; sample holder: Stoe transmission sample holder; the sample was rotated during the measurement.
# Netzsch Thermo-Microbalance TG 209 with Bruker FT-IR Spectrometer Vector 22; aluminum crucible (with microhole), N2 atmosphere, 10 K/min heating rate, 25-250° C. or 25-350° C. range.
# Perkin Elmer DSC 7; gold crucibles (closed or with microhole), sample filled in an N2 environment, 10 K/min heating rate, −50 to 250° C. or 350° C. range, at times quench cooling (at −200 K/min) to −50° C. between scans.
structure (smiles),measurement,setting,value
CC1(C)CC[C@]2(NC(=O)C(C)(F)F)CC[C@]3(C)[C@H](C(=O)C=C4[C@@]5(C)C=C(C#N)C(=O)C(C)(C)[C@@H]5CC[C@]43C)[C@@H]2C1 [PP415-P1],Solubility S,[1]; DCM,S > 200 mg/mL
same,Solubility S,"[1]; DEE, dissolved completely overnight",S > 1^d mg/mL
same,Solubility S,[1]; DMF,S > 210 mg/mL
same,Solubility S,[1]; EtOAc,S > 210 mg/mL
same,Solubility S,[1]; H2O,S < 1 mg/mL
same,Solubility S,[1]; MeCN,S > 230 mg/mL
same,Solubility S,[1]; MeCN/H2O (2:3),S < 1 mg/mL
same,Solubility S,[1]; MeOH,S < 210 mg/mL
same,Solubility S,[1]; acetone,S > 230 mg/mL
same,Solubility S,[1]; heptane,S < 1 mg/mL
same,Solubility S,[1]; toluene,S > 200 mg/mL
same,Solubility S,"[1]; toluene/DEE (1:1), precipitation after ~1d",S > 220 mg/mL
same,"area-% of reference sample at end of HPLC sequence, 242 nm",[2],99.5%
same,"area-% of reference sample at end of HPLC sequence, 254 nm",[2],99.3%
same,PXRD Result after storage,"[3]; closed, 60° C., 1 w",amorphous
same,PXRD Result after storage,"[3]; closed, 60° C., 2 w",amorphous
same,PXRD Result after storage,"[3]; closed, 60° C., 4 w",amorphous
same,PXRD Result after storage,"[3]; closed, 80° C., 1 w",amorphous
same,PXRD Result after storage,"[3]; closed, 80° C., 2 w",amorphous
same,PXRD Result after storage,"[3]; closed, 80° C., 4 w",amorphous
same,PXRD Result after storage,"[3]; open, 25° C./~62% r.h., 1 w",amorphous
same,PXRD Result after storage,"[3]; open, 25° C./~62% r.h., 2 w",amorphous
same,PXRD Result after storage,"[3]; open, 25° C./~62% r.h., 4 w",amorphous
same,PXRD Result after storage,"[3]; open, 40° C./~75% r.h., 1 w",amorphous
same,PXRD Result after storage,"[3]; open, 40° C./~75% r.h., 2 w",amorphous
same,PXRD Result after storage,"[3]; open, 40° C./~75% r.h., 4 w",amorphous
same,DVS: hygroscopicity class,[4],DVS: slightly hygroscopic; Δm = (mass increase <2% but ≧0.2%)
same,DVS: total mass gain from 0% r.h. to 95% r.h.,[4]; 0% r.h. to 95% r.h.,mass gain of 2.1 wt.-% from 0%
same,DVS: Δm (50%→85% r.h.),[4]; 50%→85% r.h.,+0.4% (50%→85% r.h.); total
same,Δm (50%→85% r.h.),[4]; DVS,+0.4%
same,post-DVS Raman and/or PXRD: solid form,[4]; after DVS,unchanged
same,Hygroscopicity classification (DVS),[4]; mass gain at 85% r.h.,slightly hygroscopic (mass increase <2% but ≧0.2%)
same,TG-FTIR: decomposition at T,[5],decomposition at T > 290 °C
same,"DSC: Tg, 1st scan",[5]; 1st scan,DSC: 1st scan: Tg = 152.7 °C
same,"DSC: Tg, 2nd scan",[5]; 2nd scan,Tg = 149.7 °C (ΔCp = 0.45 J/g ° C.)
same,TG-FTIR: mass loss (solvent),"[5]; first or main loss, solvent and temperature range per sample as printed",TG-FTIR: loss of ~0.9 wt.-%

# From patent US9701709B2 (REATA PHARMACEUTICALS, INC., priority 2012, dated 2017)
